Experiments:
Assay type in all cases: in vivo
[1] = test system: B cells and T cells (CD3T, CD4T, CD8T) in PBMC; test: Analysis of immune effector cell subpopulations in PBMC of immunized rats by flow cytometry; conditions: Lewis rats, s.c. immunization day 0, 7, 14, 21 with saponin adjuvant
Description: (§1) Different samples of the glycoconjugates (Globo H-KLH) as prepared in Example 1 were stored at 4° C., and mixed with a saponin adjuvant under a laminar flow hood. The resultant vaccine compositions were placed on ice and transported to animal facility for subsequent immunization.
(§2) The rats were immunized on day 0, 7, 14, and 21. Peripheral blood mononuclear cells (PBMC) and plasma were collected on day 0, 3, 10, 17, 24, and 31. Spleen, lymph node, and peritoneal wash were harvested on day 31.
The peripheral blood mononuclear cells (PBMCs) were isolated from the animals and then various immune effector cell subpopulations in the PBMC were identified by flow cytometry using specific antibodies against different cell markers The PBMCs, isolated from the immunized rats on day 0, 3, 10, 17, 24, and 31, were stained with different fluorescence (FITC)-conjugated antibodies and placed on ice for 30 minutes.

[2] = test system: Globo H-specific IgG and IgM antibodies; test: Globo H-specific antibody test by ELISA in plasma of immunized rats; conditions: Lewis rats, after immunization
Description: as §1, §2
The production of Globo H-specific antibodies in the plasma from the immunized rats was determined by ELISA assay. […] There was no response of Globo H-specific IgG and IgM antibody in rats treated with PBS only.

[3] = test system: Globo H-specific IgM antibody; test: Immunization in mice with different Globo H:KLH ratios and antibody test by ELISA; conditions: Balb/c mice, s.c. day 0, 7, 14, 21, with saponin adjuvant, sera, compared with PBS control or between weight ratios
Description: Different samples of the glycoconjugates (Globo H-KLH) were stored at 4° C., and mixed with a saponin adjuvant under a laminar flow hood. The resultant vaccine compositions were placed on ice and transported to animal facility for subsequent immunization.
Balb/c mice of approximately eight weeks old were given Globo H-KLH glycoconjugate with different carbohydrate-to-protein (Globo H: KLH) ratios once every week for four weeks (Day 0, 7, 14, and 21) via subcutaneous injection. Blood samples were collected through retro-orbital or facial vein without anticoagulant pre-immune or Day 0, and three days after each vaccination (Day 10, 17 and 24). Samples were then centrifuged to separate sera and red cells. Sera were collected and stored at −20° C., which were later analyzed by ELISA. Mann-Whitney t-test was used for statistical analysis.

Substance: Fucα(1→2) Galβ(1→3) GalNAcβ(1→3) Galα(1→4) Galβ(1→4) Gluβ(1-O-ethylhydrazyl-1-carbonyl-cyclohexyl-4-(methyl-N-maleimido)-3-(thiobutyl-imidyl)-Keyhole Limpet Hemocyanin (KLH) [OBI-822]
- day at which CD3T, CD4T and CD8T cells appeared [1]: 24 days
- day at which the B cell population first appeared [1]: 3 days
- expansion of B cells and T cells compared to the PBS control group ([1]; flow cytometry): significantly expanded
- time at which titers of Globo H-specific IgG began to rise [2]: 10 days
- time at which titers of Globo H-specific IgG peaked [2]: 17 days
- Globo H-specific IgM antibody responses [3]: significantly induce
